# Measured values as given in PubChem BioAssay (NCI).
#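 Interpolation was linear, between the two tested concentrations surrounding the appropriate level; five concentrations were tested over 48 hours in 96-well plates. At the GI50, growth is halved. The concentration for full growth arrest is given as TGI.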
# Key:
# Experiment in all cases: NCI anticancer screen, dose series, 48 h
# [1] = tested on: IGROV1 ovarian
# [2] = tested on: UACC-257 melanoma
# [3] = tested on: SF-295 CNS
# [4] = tested on: MCF7 breast
# [5] = tested on: SK-MEL-28 melanoma
# [6] = tested on: K-562 leukemia
# [7] = tested on: ACHN renal
# [8] = tested on: CCRF-CEM leukemia
# [9] = tested on: NCI-H460 lung
SMILES,TGI [1] [µM],TGI [2] [µM],TGI [3] [µM],TGI [4] [µM],TGI [5] [µM],TGI [6] [µM],TGI [7] [µM],TGI [8] [µM],TGI [9] [µM],GI50 [1] [µM],GI50 [4] [µM],GI50 [7] [µM],GI50 [9] [µM],GI50 [2] [µM],GI50 [3] [µM],GI50 [5] [µM],GI50 [8] [µM]
Cn1c(=O)c2c(nc3n(CC(O)CCl)c(=O)ccn23)n(C)c1=O (stereo not given),> 100,> 100,> 100,> 100,> 100,> 100,> 100,> 100,> 100,–,–,–,–,–,–,–,–
Cn1nc2ccc([N+](=O)[O-])c(Cn3nnc4ccccc43)c2n1,> 100,> 100,> 100,> 100,> 100,> 100,> 100,> 100,> 100,–,–,–,–,–,–,–,–
CCOC(=O)C(C#N)(Cc1c[nH]c2ccccc12)NC(C)=O (stereo not given),> 100,> 100,> 100,–,> 100,> 100,> 100,> 100,> 100,–,–,–,–,–,–,–,–
CCOC(=O)c1ccc(-n2[nH]nc(C(N)=O)c2=O)cc1,> 100,> 100,> 100,> 100,> 100,> 100,> 100,> 100,> 100,–,–,–,–,–,–,–,–
CC1=NNC(=O)C1C1C(=O)NN=C(c2c[nH]c3ccccc23)C1Br (stereo not given),> 100,> 100,54.7,–,> 100,> 100,> 100,65.5,> 100,–,–,–,–,–,–,–,–
Nc1n(CC(=O)c2ccccc2)nc2sc(-c3ccccc3)n[n+]12,56.6,> 100,55,> 100,> 100,> 100,29.6,> 100,30.5,–,–,–,–,–,–,–,–
O=C(Nc1ccc(N2C(=O)CSC2c2ccccc2O)cc1)c1ccc(N2C(=O)CSC2c2ccccc2O)cc1 (stereo not given),> 100,> 100,> 100,> 100,> 100,> 100,> 100,> 100,> 100,–,–,–,–,–,–,–,–
COc1ccc([C@H]2[C@H]3COC(=O)[C@H]3C(C#N)=C3Sc4ccccc4N32)cc1,–,> 100,> 90.8,> 100,> 100,> 100,> 100,47.7,> 100,–,–,–,–,–,–,–,–
NC(=O)Nc1c(Cl)cc(S(N)(=O)=O)cc1Cl,> 100,> 100,> 100,> 100,> 100,> 100,–,> 100,–,–,–,–,–,–,–,–,–
COc1ccc(N2CC(=O)N(C(=O)COc3ccc(OCC(=O)N4C(=O)CN(c5ccc(OC)cc5)C4=S)cc3)C2=S)cc1,> 100,> 100,> 100,> 100,> 100,> 100,> 100,–,> 100,–,–,–,–,–,–,–,–
CN1CCC(CNc2cc(C3(C(=O)Nc4cc(C(=O)Nc5ccc(Cl)c(C(F)(F)F)c5)ccc4F)CC3)ncn2)CC1,6.19,–,–,5.24,–,–,4.98,–,5.38,2.17,1.97,2.16,2.13,–,–,–,–
CCn1nc(C)c2c1C(=O)NCC(=O)N2,> 100,> 100,> 100,–,> 100,–,> 100,–,> 100,–,–,–,–,–,–,–,–
CCO/C(=N/S(=O)(=O)C(F)(F)F)N(C(C)C)C(C)C,> 100,> 100,–,> 100,> 100,–,> 100,> 100,> 100,–,–,–,–,–,–,–,–
CNC(C)(C)Cc1ccc(Cl)cc1,> 100,> 100,> 100,–,> 100,> 100,> 100,> 100,> 100,–,–,–,–,–,–,–,–
CN(C)CC(O)c1ccc(Cl)c2ccccc12 (stereo not given),> 85.7,38.2,> 63.6,> 81.8,36.3,–,> 100,53.8,> 100,–,–,–,–,–,–,–,–
O=S1(=O)c2ccccc2Oc2ccc(C(/C=N/O)=N/O)cc21,68.9,–,51.2,92.5,> 100,> 100,> 100,72.1,> 100,–,–,–,–,–,–,–,–
Cc1cc([NH-])c([NH-])cc1C.[Cl][Pt+2][Cl],45.4,> 67.2,16.1,25.2,39.5,> 41.5,–,61.5,> 43.8,15.2,7.37,–,4.97,22.4,3.36,16.7,1.95
CCCCCOc1ccc(C=Nc2ccc(CCc3ccc(N=Cc4ccc(OCCCCC)cc4)cc3)cc2)cc1,> 100,> 100,> 100,> 100,> 100,> 100,–,> 100,> 100,–,–,–,–,–,–,–,–
CSc1ncc2c(n1)C(C#N)C1Sc3ccccc3N1C2=O (stereo not given),> 100,> 100,> 100,–,> 100,–,> 100,–,> 100,–,–,–,–,–,–,–,–
C#CCNC(CSSCC(N)C(=O)O)C(=O)O (stereo not given),> 100,> 100,> 100,> 100,> 100,–,> 100,> 100,–,–,–,–,–,–,–,–,–
